The structures appear in SMILES notation.

The results in this text go back to publication PMC6332188, “Synthesis, Antiviral Bioactivity of Novel 4-Thioquinazoline Derivatives Containing Chalcone Moiety” (Molecules, 2015).

The assay concerns the target T1, TMV CP (tobacco mosaic virus coat protein) (Tobacco mosaic virus (vulgare), UniProt P69687).
T1 construct: labelled with Monolith NT Protein Labeling Kit Red
The experiment in a line: microscale thermophoresis. In kind it is binding. From the text:
microscale thermophoresis on TMV CP (tobacco mosaic virus coat protein)
For orientation: MST reads how a fluorescent partner responds to local heating, with and without ligand.

T1 sequence (P69687 2-159 limits assumed): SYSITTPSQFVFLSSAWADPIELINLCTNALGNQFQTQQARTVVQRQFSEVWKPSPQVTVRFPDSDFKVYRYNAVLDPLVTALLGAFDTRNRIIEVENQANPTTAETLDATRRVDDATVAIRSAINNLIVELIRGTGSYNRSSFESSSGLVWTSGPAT

`COc1ccc(/C=C/C(=O)c2ccc(OCCSc3ncnc4ccccc34)cc2)cc1OC` [M6, (E)-3-(3,4-Dimethoxyphenyl)-1-(4-(2-(quinazolin-4-ylthio)ethoxy)phenyl)prop-2-en-1-one]: the Kd (commonly the free concentration of one partner at which half of the binding sites on the other are occupied at equilibrium, for simple one-to-one binding) is 31.1 ± 1.83 µM.
As for `O=C(/C=C/c1ccc(Cl)cc1)c1ccc(OCCSc2ncnc3ccccc23)cc1` [M15], the figure is 346 ± 23.9 µM.
As for `NC(=O)c1ncn([C@@H]2O[C@H](CO)[C@@H](O)[C@H]2O)n1` [Ribavirin], the figure is 511 ± 33.1 µM.
